Laboratory results published in publication PMC12040169 (PLOS Biology, 2025).

Experiment: in vitro
Details: human, hela cells, % viability

Q: With `Cc1cn2c3c(=O)n(C)c(=O)n(C)c3nc2n1CCN1CCOCC1` [CBK270139] as the compound, how does the viability at 28.5 h, 10 µM read?
A: 91.7%

Q: Which viability at 28.5 h, 10 µM does the source give for `O=C(NC[C@H]1C[C@@H]2CC[N@]1C[C@@H]2CN1CCN(c2ccccn2)CC1)Nc1ccsc1` [CBK289113] here?
A: 101%

Q: Which viability at 28.5 h, 10 µM does the source give for `CCN(CC)c1c(C)nc2ccc(C(=O)NCCc3ccccn3)cn12` [CBK145951] here?
A: 94.9%

Q: Which viability at 28.5 h, 10 µM does the source give for `CN1CCN(CCC(=O)N/N=C/c2ccccc2O)CC1` [CBK261497] here?
A: 93.1%

Q: Which viability at 28.5 h, 10 µM does the source give for `Cc1ccc(CN(CCCN(C)C)Cc2nc(C)n3ccccc23)o1` [CBK282482] here?
A: 106%

Q: Which viability at 28.5 h, 10 µM does the source give for `O=C(C1CCCCC1)N1CC(n2nc(-c3ccccc3)ccc2=O)C1` [CBK284616] here?
A: 92.8%

Q: For `CC(C)(C)C(Cn1cccn1)NC(=O)CCC(=O)O` (stereo not shown) [CBK286897], which viability at 28.5 h, 10 µM is on record?
A: 81.3%

Q: With `c1ccc(-c2nc(C3CC3)n3ccccc23)cc1` [CBK149257] as the compound, how does the viability at 28.5 h, 10 µM read?
A: 94.1%

Q: Which viability at 28.5 h, 10 µM does the source give for `CCn1c2ccccc2n2c(SC(C)C(=O)O)nnc12` (stereo not shown) [CBK267079] here?
A: 103%

Q: Which viability at 28.5 h, 10 µM does the source give for `CC(C)(C)OC(=O)NC1CCC(NCc2ccncc2)CC1` (stereo not shown) [CBK056688] here?
A: 98.8%

Q: For `Cc1nnc(SCc2nnc(-c3ccccc3)o2)n1Cc1ccccc1` [CBK269743], which viability at 28.5 h, 10 µM is on record?
A: 92.2%

Q: Which viability at 28.5 h, 10 µM does the source give for `O=C(CN1CCCC1)N1CCCC1c1nc2ccccc2[nH]1` (stereo not shown) [CBK284003] here?
A: 89.4%

Q: Which viability at 28.5 h, 10 µM does the source give for `O=C(CN1CCOCC1)Nc1ccc(NC(=O)CN2CCOCC2)c(Cl)c1` [CBK264243] here?
A: 112%

Q: For `CN(C)c1cccc(-c2nc(-c3cccs3)cnc2N)c1` [CBK063979], which viability at 28.5 h, 10 µM is on record?
A: 93.5%

Q: For `OCCCNc1nccnc1-c1cccnc1` [CBK037277], which viability at 28.5 h, 10 µM is on record?
A: 108%

Q: For `O=C(N/N=C/c1c[nH]c2ccc(Br)cc12)c1ccncc1` [CBK262798], which viability at 28.5 h, 10 µM is on record?
A: 116%

Q: For `CC1CCN(S(=O)(=O)c2cccc(C(=O)NNC(=O)c3ccco3)c2)CC1` [CBK266796], which viability at 28.5 h, 10 µM is on record?
A: 92.2%

Q: For `CCOC(=O)Cn1c(-c2cccs2)cc2cccnc21` [CBK282267], which viability at 28.5 h, 10 µM is on record?
A: 95.2%

Q: For `CC(C)c1ccc(NC(=O)CSc2nnc(CN3CCOCC3)n2C)cc1` [CBK268235], which viability at 28.5 h, 10 µM is on record?
A: 93.7%

Q: Which viability at 28.5 h, 10 µM does the source give for `Cc1ccc(-c2cc(C(=O)NCc3cnn(C)c3)c3cc(Br)ccc3n2)cc1` [CBK293959] here?
A: 89.1%

Q: For `COC(=O)c1cccc(OCCn2c(=O)c(C#N)cn(C3CC3)c2=O)c1` [CBK305990], which viability at 28.5 h, 10 µM is on record?
A: 98.6%

Q: For `N/C(=N/O)c1ccc(-n2cncn2)nc1` [CBK020936], which viability at 28.5 h, 10 µM is on record?
A: 104%

Q: For `Cc1cnn(C2CCCN(C(=O)Cc3cccs3)C2)c1` (stereo not shown) [CBK304832], which viability at 28.5 h, 10 µM is on record?
A: 102%

Q: With `Cc1sc2nc(C)n(C3CCNCC3)c(=O)c2c1C` [CBK282421] as the compound, how does the viability at 28.5 h, 10 µM read?
A: 113%

Q: With `O=C(NCCc1ccc(Cl)cc1)C1CCN(C(=O)CCc2ccccc2F)C1` (stereo not shown) [CBK285931] as the compound, how does the viability at 28.5 h, 10 µM read?
A: 84.1%

Q: Which viability at 28.5 h, 10 µM does the source give for `CC1CCN(S(=O)(=O)c2ccc(C(=O)N3CCCCC3C(=O)O)cc2)CC1` (stereo not shown) [CBK297094] here?
A: 89.8%

Q: With `O=C1CCCC[C@]2(CN(Cc3ccccc3)C[C@H]2c2ccccn2)N1` [CBK283340] as the compound, how does the viability at 28.5 h, 10 µM read?
A: 82.6%

Q: With `N#Cc1cccnc1N1CC2COCCC2(C(=O)N2CCC=C(F)C2)C1` (stereo not shown) [CBK304744] as the compound, how does the viability at 28.5 h, 10 µM read?
A: 91.5%

Q: For `O=C(O)c1ccccc1N1C(=O)c2ccc(Oc3ccc(Oc4ccc5c(c4)C(=O)N(c4ccccc4C(=O)O)C5=O)cc3)cc2C1=O` [CBK261186], which viability at 28.5 h, 10 µM is on record?
A: 88.6%

Q: Which viability at 28.5 h, 10 µM does the source give for `CC(C)CCC(=O)Nc1ccc(N2CCN(C(=O)c3ccccc3C(F)(F)F)CC2)nn1` [CBK138629] here?
A: 100%

Q: Which viability at 28.5 h, 10 µM does the source give for `CN(Cc1ccc(F)cc1F)C(=O)Cn1nc2n(c1=O)CCCCC2` [CBK304598] here?
A: 86.3%

Q: For `COC(=O)CCSc1nc(C)nc2c1c(=O)n(C)c(=O)n2CC(C)C` [CBK305891], which viability at 28.5 h, 10 µM is on record?
A: 82.7%

Q: Which viability at 28.5 h, 10 µM does the source give for `Cc1cc(OCCCCNCCO)ccc1Cl` [CBK033516] here?
A: 111%

Q: Which viability at 28.5 h, 10 µM does the source give for `Cc1cccc(N2C(=O)c3ccc(C(=O)OC(C(=O)c4ccccc4)c4ccccc4)cc3C2=O)c1` (stereo not shown) [CBK265098] here?
A: 88.8%

Q: With `COc1ccc(CCNC(=S)N2CCN(S(C)(=O)=O)CC2)cc1OC` [CBK266917] as the compound, how does the viability at 28.5 h, 10 µM read?
A: 115%

Q: Which viability at 28.5 h, 10 µM does the source give for `COC(=O)[C@H]1CN(C(=O)c2cnn(C)c2C)C[C@@H]1c1ccc(F)cc1` [CBK283721] here?
A: 84.5%

Q: For `COc1ccc2nc(-c3ccc(F)c(NC(=O)c4ccccc4)c3)cn2n1` [CBK287827], which viability at 28.5 h, 10 µM is on record?
A: 110%

Q: With `COc1cccc(-c2cncc(C3CCN(C(=O)CCOc4ccccc4)CC3)n2)c1` [CBK286153] as the compound, how does the viability at 28.5 h, 10 µM read?
A: 88.9%

Q: With `Cc1nc(-c2ccccc2)ccc1C(=O)Nc1nc(CC(N)=O)cs1` [CBK295195] as the compound, how does the viability at 28.5 h, 10 µM read?
A: 96.8%

Q: With `O=C(O)C1CCCN(C(=O)NCc2c(Cl)cccc2Cl)C1` (stereo not shown) [CBK161362] as the compound, how does the viability at 28.5 h, 10 µM read?
A: 90%

Q: With `CC(=O)N1c2ccc(C(O)CN3CCSCC3)cc2CC1C` (stereo not shown) [CBK283143] as the compound, how does the viability at 28.5 h, 10 µM read?
A: 98.9%

Q: With `CS(=O)(=O)N1CCC(C(=O)NC(c2ccccc2)c2ccccc2)CC1` [CBK269801] as the compound, how does the viability at 28.5 h, 10 µM read?
A: 77.8%

Q: Which viability at 28.5 h, 10 µM does the source give for `O=C(Nc1ccccc1)N(Cc1nc(-c2ccccc2)no1)C1CCCCC1` [CBK269830] here?
A: 93.2%

Q: Which viability at 28.5 h, 10 µM does the source give for `Cc1ccc([N+](=O)[O-])cc1NC(=O)CCn1cnc2ccccc2c1=O` [CBK267644] here?
A: 106%

Q: For `O=C(Cc1ccccc1)Nc1nnc(C2=COCCO2)o1` [CBK287416], which viability at 28.5 h, 10 µM is on record?
A: 92.2%

Q: For `CCOC(=O)C(C)n1nc(CC)n2c(cc3sc(C)cc32)c1=O` (stereo not shown) [CBK284123], which viability at 28.5 h, 10 µM is on record?
A: 86%

Q: With `O=C(c1nc(=O)[nH][nH]1)N1CCN(Cc2ccc(C(F)(F)F)cc2)CC1` [CBK298312] as the compound, how does the viability at 28.5 h, 10 µM read?
A: 95.5%

Q: With `CCCn1c(SCC(=O)NCCN2C(=O)CSC2=O)n[nH]c1=O` [CBK296976] as the compound, how does the viability at 28.5 h, 10 µM read?
A: 89.2%

Q: For `CN1C[C@@H](NS(C)(=O)=O)C[C@H]1c1nc(-c2ccc3c(c2)OCO3)no1` [CBK288875], which viability at 28.5 h, 10 µM is on record?
A: 114%

Q: With `CC1(C)CC(NC(=O)C(=O)NCCc2ccc(Cl)cc2)CC(C)(C)N1` [CBK262363] as the compound, how does the viability at 28.5 h, 10 µM read?
A: 83.8%

Q: Which viability at 28.5 h, 10 µM does the source give for `NCCCNC(=O)c1ccc(/C=N/O)nc1` [CBK264524] here?
A: 110%

Q: For `Cc1nn(C)c2ncc(S(=O)(=O)Nc3cc(C(N)=O)ccc3Cl)cc12` [CBK306104], which viability at 28.5 h, 10 µM is on record?
A: 70%

Q: With `O=S(=O)(Nc1ncccn1)c1ccc(NC(=S)Nc2ccc3c(c2)OCO3)cc1` [CBK267046] as the compound, how does the viability at 28.5 h, 10 µM read?
A: 89%

Q: For `Cc1ccc(C(=O)N2CCn3c2nc2ccccc23)cc1` [CBK288204], which viability at 28.5 h, 10 µM is on record?
A: 108%

Q: For `N[C@H](CSCc1ccccc1)C(=O)Nc1ccc([N+](=O)[O-])cc1` [CBK074824], which viability at 28.5 h, 10 µM is on record?
A: 88.8%

Q: For `CCNS(=O)(=O)c1ccc2c(c1)N(Cc1csnn1)CC2` [CBK306161], which viability at 28.5 h, 10 µM is on record?
A: 74.3%

Q: Which viability at 28.5 h, 10 µM does the source give for `COc1ccc2oc(=O)c(C(=O)Nc3cccc(O)c3)cc2c1` [CBK270070] here?
A: 87.3%

Q: For `CS(=O)(=O)c1ccc(Cn2ccnc(OC3CCN(C(=O)c4ccc(C#N)cc4)CC3)c2=O)cc1` [CBK161804], which viability at 28.5 h, 10 µM is on record?
A: 92.4%

Q: With `COc1ccc(C2C(C(=O)c3ccco3)=C(O)C(=O)N2CCN2CCOCC2)cc1OC` (stereo not shown) [CBK264544] as the compound, how does the viability at 28.5 h, 10 µM read?
A: 98.8%

Q: Which viability at 28.5 h, 10 µM does the source give for `O=C(O)CCC(=O)N1CCN(C(=O)c2ccco2)CC1` [CBK286533] here?
A: 102%

Q: With `Nc1ncnc(NCCCN2CCOCC2)c1[N+](=O)[O-]` [CBK267267] as the compound, how does the viability at 28.5 h, 10 µM read?
A: 91.8%

Q: For `O=C(Cn1c(C2CCOCC2)cc2cccnc21)N1CCCCCC1` [CBK284674], which viability at 28.5 h, 10 µM is on record?
A: 105%

Q: Which viability at 28.5 h, 10 µM does the source give for `O=C(O)C1C2C=CC(O2)C1C(=O)Nc1ccc(S(=O)(=O)N2CCc3ccccc32)cc1` (stereo not shown) [CBK268176] here?
A: 91.1%

Same assay, conditions: human, hela cells, % viability, bulk resorufin, single well

Q: With `CC(=O)N1CCC2(CC1)OCc1cc(-c3cncc4ccccc34)ccc1O2` [CBK061010] as the compound, how does the viability at 28.5 h, 10 µM read?
A: 90.4%
